The source of these data is patent publication US8309730B2, “Nonsteroidal compounds useful as modulators of glucocorticoid receptor AP-1 and/or NF-kappab acitivity and use thereof” (Bristol-Myers Squibb Company, priority 2007, dated 2012).

The assay has as its system AP-1 induced transcriptional activity. In words: Cellular Transrepressional Assay (AP-1 luciferase reporter in A549 cells). In kind it is cell-based. The conditions noted are these: Homo sapiens, A549 cells stably transfected with pAP-1-Luc, 10 ng/ml PMA, 7 hours; for Emax: maximum inhibition, read-out: AP-1 Max % inh (Cellular Transrepression Assay); for EC50: read-out: AP-1 EC50, nM (Cellular Transrepression Assay). Here is the method:
To measure the ability of test molecules to inhibit AP-1 induced transcriptional activity we utilized an A549 cell which was stably transfected with a plasmid containing 7×AP-1 DNA binding sites (pAP-1-Luc plasmid, Stratagene Co. La Jolla, Calif.) followed by the gene for luciferase. Cells were activated with 10 ng/ml of phorbol myristic acid (PMA) plus or minus test molecules for 7 hours. After 7 hours a luciferase reagent was added to measure luciferase enzymatic activity in the cell. After a 10 minute incubation of luciferase reagent with cells, luminescence was measured in a TopCount luminescence counter. Repression of AP-1 activity was calculated as the percentage decrease in the signal induced by PMA alone. Test molecules were analyzed in the concentration range from 0.1 nM to 40 μM. EC50 values were determined by using standard curve fitting methods such as Excel fit (Microsoft Co.).

With `C[C@]12Cn3cnc(-c4ccccc4)c3C=C1CCC[C@@H]2[C@](C)(O)c1csc2ccccc12` (racemic) [Example 15], the Emax was found to be 42.7% and the 50% effective concentration (EC50) was 145 nM.
For `C[C@]12Cn3cnc(-c4ccccc4)c3C=C1CCC[C@@H]2[C@](C)(O)c1csc2ccccc12` (single isomer, unassigned) [Example 31], in that order: 41.2% and 181 nM.
Take `C[C@]12Cn3cnc(-c4ccc(F)cc4)c3C=C1CCC[C@@H]2[C@](C)(O)c1cccs1` [Example 1, (S)-1-((5aR,6S)-1-(4-Fluorophenyl)-5a-methyl-5,5a,6,7,8,9-hexahydroimidazo[1,5-b]isoquinolin-6-yl)-1-(thiophen-2-yl)ethanol]: the Emax was 38.1% and the EC50 was 21.4 nM.
For `CN(C)C(=O)c1ccc([C@@](C)(O)[C@H]2CCCC3=Cc4c(-c5ccc(F)cc5)ncn4C[C@@]32C)s1` [Example 3, 5-((S)-1-((5aR,6S)-1-(4-Fluorophenyl)-5a-methyl-5,5a,6,7,8,9-hexahydroimidazo[1,5-b]isoquinolin-6-yl)-1-hydroxyethyl)-N,N-dimethylthiophene-2-carboxamide], in that order: 29.5% and 267 nM.
Taken in the same sequence, the figures for `C[C@]12Cn3cnc(-c4ccc(F)cc4)c3C=C1CCC[C@@H]2CCNc1nncs1` [Example 5, N-(2-((5aR,6R)-1-(4-Fluorophenyl)-5a-methyl-5,5a,6,7,8,9-hexahydroimidazo[1,5-b]isoquinolin-6-yl)ethyl)-1,3,4-thiadiazol-2-amine] were 22.6% and 98 nM.
For `C[S+]([O-])c1cccc([C@@](C)(O)[C@H]2CCCC3=Cc4c(-c5ccc(F)cc5)ncn4C[C@@]32C)c1` (stereo partly drawn) [Example 8b, (1S)-1-((5aR,6S)-1-(4-fluorophenyl)-5a-methyl-5,5a,6,7,8,9-hexahydroimidazo[1,5-b]isoquinolin-6-yl)-1-(3-(methylsulfinyl)phenyl)ethanol], in that order: 40.7% and 236 nM.
In the case of `CC(C)(O)c1cccc([C@@](C)(O)[C@H]2CCCC3=Cc4c(-c5ccc(F)cc5)ncn4C[C@@]32C)c1` [Example 9, 2-(3-((S)-1-((5aR,6S)-1-(4-Fluorophenyl)-5a-methyl-5,5a,6,7,8,9-hexahydroimidazo[1,5-b]isoquinolin-6-yl)-1-hydroxyethyl)phenyl)propan-2-ol], the Emax was 34.3% and the concentration giving a half-maximal response (EC50) is 144 nM.
In the case of `C[C@]12Cn3cnc(-c4ccc(F)cc4)c3C=C1CCC[C@@H]2[C@](C)(O)C(F)(F)F` [Example 10, (S)-1,1,1-Trifluoro-2-((5aR,6S)-1-(4-fluorophenyl)-5a-methyl-5,5a,6,7,8,9-hexahydroimidazo[1,5-b]isoquinolin-6-yl)propan-2-ol], the Emax was determined as 31.3% and the EC50 is 30.9 nM.
For `C[C@]12Cn3cnc(-c4ccc(F)cc4)c3C=C1CCC[C@@H]2[C@](C)(O)c1ccc(F)cc1` [Example 48], in that order: 35.6% and 11.9 nM.
For `C[C@]12Cn3cnc(-c4ccc(F)cc4)c3C=C1CCC[C@@H]2[C@](C)(O)c1ccc(Cl)cc1` [Example 53], in that order: 44.6% and 63.2 nM.
Consider `C[C@]12Cn3cnc(-c4ccc(F)cc4)c3C=C1CCC[C@@H]2[C@](C)(O)c1ccsc1` [Example 54], for which the Emax was 42.7% and the EC50 worked out at 4.67 nM.
For `C[C@]12Cn3cnc(-c4ccc(F)cc4)c3C=C1CCC[C@@H]2[C@](C)(O)Cc1ccc(F)cc1` [Example 55], in that order: 53.7% and 84.2 nM.
On to `C[C@]12Cn3cnc(-c4ccc(F)cc4)c3C=C1CCC[C@@H]2[C@](C)(O)c1ccc(F)c(Cl)c1` [Example 56], for which the Emax amounted to 39.6% and the 50% effective concentration (EC50) came to 19.3 nM.
Taken in the same sequence, the figures for `C=CC[C@@](C)(O)[C@H]1CCCC2=Cc3c(-c4ccc(F)cc4)ncn3C[C@@]21C` [Example 57] were 55.9% and 56.6 nM.
Taken in the same sequence, the figures for `C[C@]12Cn3cnc(-c4ccc(F)cc4)c3C=C1CCC[C@@H]2[C@](C)(O)C1CC1` [Example 58] were 35.8% and 36.8 nM.
As to `Cc1ccc([C@@](C)(O)[C@H]2CCCC3=Cc4c(-c5ccc(F)cc5)ncn4C[C@@]32C)s1` [Example 60], the Emax was determined as 48.3% and the half-maximal effective concentration (EC50) worked out at 31.3 nM.
`Cc1ccsc1[C@@](C)(O)[C@H]1CCCC2=Cc3c(-c4ccc(F)cc4)ncn3C[C@@]21C` [Example 61]: the Emax stood at 58.8% and the concentration giving a half-maximal response (EC50) stood at 11.6 nM.
For `C[C@]12Cn3cnc(-c4ccc(F)cc4)c3C=C1CCC[C@@H]2[C@](C)(O)c1ccc(Cl)s1` [Example 62], in that order: 61.2% and 5.48 nM.
For `CC(C)(C)C[C@@](C)(O)[C@H]1CCCC2=Cc3c(-c4ccc(F)cc4)ncn3C[C@@]21C` [Example 63], in that order: 47.5% and 31.5 nM.
Taken in the same sequence, the figures for `Cc1ccc([C@@](C)(O)[C@H]2CCCC3=Cc4c(-c5ccc(F)cc5)ncn4C[C@@]32C)cc1` [Example 64] were 41.9% and 4.26 nM.
Turning to `Cc1cccc([C@@](C)(O)[C@H]2CCCC3=Cc4c(-c5ccc(F)cc5)ncn4C[C@@]32C)c1` [Example 65], the Emax came to 46.7% and the EC50 was 9.75 nM.
With `Cc1ccccc1[C@@](C)(O)[C@H]1CCCC2=Cc3c(-c4ccc(F)cc4)ncn3C[C@@]21C` [Example 66], the Emax worked out at 42.1% and the EC50 is 4.6 nM.
Consider `C[C@]12Cn3cnc(-c4ccc(F)cc4)c3C=C1CCC[C@@H]2[C@](C)(O)C1CCCCC1` [Example 67], for which the Emax is 44.3% and the EC50 was determined as 1.99 nM.
For `CCCC[C@@](C)(O)[C@H]1CCCC2=Cc3c(-c4ccc(F)cc4)ncn3C[C@@]21C` [Example 68], in that order: 40.8% and 33.9 nM.
Taken in the same sequence, the figures for `C[C@]12Cn3cnc(-c4ccc(F)cc4)c3C=C1CCC[C@@H]2[C@](C)(O)c1ccccc1` [Example 71] were 32.5% and 3.02 nM.
For `Cc1ccc([C@@](C)(O)[C@H]2CCCC3=Cc4c(-c5ccc(F)cc5)ncn4C[C@@]32C)cc1F` [Example 74], in that order: 34.5% and 14.3 nM.
Regarding `CCc1ccccc1[C@@](C)(O)[C@H]1CCCC2=Cc3c(-c4ccc(F)cc4)ncn3C[C@@]21C` [Example 75], the Emax was determined as 47.1% and the concentration for a half-maximal effect (EC50) is 41.6 nM.
Taken in the same sequence, the figures for `C[C@]12Cn3cnc(-c4ccc(F)cc4)c3C=C1CCC[C@@H]2[C@](C)(O)c1cccc(C#N)c1` [Example 83] were 35.6% and 19.2 nM.
For `CSc1cccc([C@@](C)(O)[C@H]2CCCC3=Cc4c(-c5ccc(F)cc5)ncn4C[C@@]32C)c1` [Example 89], in that order: 45.3% and 20.8 nM.
For `COC(=O)c1ccc([C@@](C)(O)[C@H]2CCCC3=Cc4c(-c5ccc(F)cc5)ncn4C[C@@]32C)s1` [Example 92], the Emax came to 47.4% and the EC50 was 24.7 nM.
Taken in the same sequence, the figures for `C[C@]12Cn3cnc(-c4ccc(F)cc4)c3C=C1CCC[C@@H]2[C@](C)(O)C1CCOCC1` [Example 96] were 42% and 56.5 nM.
For `COc1cccc([C@@](C)(O)[C@H]2CCCC3=Cc4c(-c5ccc(F)cc5)ncn4C[C@@]32C)c1` [Example 97], the Emax worked out at 39.6% and the EC50 turned out to be 95 nM.

Broadly, the EC50 is the concentration needed to bring the measured effect to its halfway point.
